# Test results: paper PMC6001238, “Iterative Chemical Engineering of Vancomycin Leads to Novel Vancomycin Analogs With a High in Vitro Therapeutic Index” (Frontiers in Microbiology, 2018)
# Key:
# S. aureus VISA/HIP5827 = experiment: MIC, broth microdilution, vancomycin-intermediate S. aureus VISA HIP5827; assay type: cell-based, Staphylococcus aureus; conditions: for MIC: Staphylococcus aureus VISA/HIP5827, read-out: MIC; for MIC-fold improvement vs. vancomycin: VISA/HIP5827, ratio of MIC of vancomycin and MIC of analogue
# In short: (§1)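 Read-out: lowest concentration inhibiting growth in broth microdilution, CLSI method. Water and broth-only wells acted as controls; in one case 10 μM vancomycin (final) was present with the compound.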
# E. faecalis VSE 1 = experiment: MIC, broth microdilution, vancomycin-sensitive E. faecalis (VSE 1); assay type: cell-based, Enterococcus faecalis; conditions: for MIC: Enterococcus faecalis VSE 1 (vancomycin-sensitive), read-out: MIC; for MIC-fold improvement vs. vancomycin: VSE 1, ratio of MIC of vancomycin and MIC of analogue
# In short: as §1
# MRSA KS2 = experiment: MIC, broth microdilution, MRSA KS2; assay type: cell-based, Staphylococcus aureus; conditions: for MIC-fold improvement vs. vancomycin: MRSA KS2, ratio of MIC of vancomycin and MIC of analogue; for MIC: Staphylococcus aureus MRSA KS2, read-out: MIC
# In short: as §1
# E. faecalis VRE 53 = experiment: MIC, broth microdilution, vancomycin-resistant E. faecalis VRE 53 (VanA); assay type: cell-based, Enterococcus faecalis; conditions: for MIC: Enterococcus faecalis VRE 53 (vancomycin-resistant), read-out: MIC; for MIC-fold improvement vs. vancomycin: VRE 53, ratio of MIC of vancomycin and MIC of analogue
# In short: as §1
# [1] = system: S. aureus VSSA (ATCC 6538); experiment: MIC, broth microdilution, vancomycin-sensitive S. aureus (VSSA/MSSA, ATCC 6538); assay type: cell-based, Staphylococcus aureus; conditions: for MIC: Staphylococcus aureus VSSA, read-out: MIC; for MIC-fold improvement vs. vancomycin: VSSA, ratio of MIC of vancomycin and MIC of analogue
# In short: as §1
# E. faecalis VRE 6 = experiment: MIC, broth microdilution, vancomycin-resistant E. faecalis VRE 6 (VanA); assay type: cell-based, Enterococcus faecalis; conditions: for MIC: Enterococcus faecalis VRE 6 (vancomycin-resistant), read-out: MIC; for MIC-fold improvement vs. vancomycin: VRE 6, ratio of MIC of vancomycin and MIC of analogue
# In short: as §1
# E. faecalis VRE 37 = experiment: MIC, broth microdilution, vancomycin-resistant E. faecalis VRE 37 (VanA); assay type: cell-based, Enterococcus faecalis; conditions: for MIC: Enterococcus faecalis VRE 37 (vancomycin-resistant), read-out: MIC; for MIC-fold improvement vs. vancomycin: VRE 37, ratio of MIC of vancomycin and MIC of analogue
# In short: as §1
# [2] = system: Murine leukemia (L1210) cells; experiment: Cytostatic activity, L1210 cell proliferation; assay type: cell-based; conditions: mean ± SD of three experiments; highest concentration tested 250 µM; 2 days; read-out: Toxicity (IC50) L1210
# In short: (§2)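 Test compounds, serially diluted, received an equal volume of cell suspension at 300,000–500,000 cells/mL. After 37°C incubation (2 days for L1210, 3 for CEM, 4 for HeLa), cells were enumerated by Coulter counting and 50%-inhibitory concentrations calculated per cell type.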
# MRSA KS6 = experiment: MIC, broth microdilution, MRSA KS6; assay type: cell-based, Staphylococcus aureus; conditions: for MIC-fold improvement vs. vancomycin: MRSA KS6, ratio of MIC of vancomycin and MIC of analogue; for MIC: Staphylococcus aureus MRSA KS6, read-out: MIC
# In short: as §1
# [3] = system: human cervix carcinoma (HeLa) cells; experiment: Cytostatic activity, HeLa cell proliferation; assay type: cell-based; conditions: mean ± SD of three experiments; highest concentration tested 250 µM; 4 days; read-out: Toxicity (IC50) HeLa
# In short: as §2
# MRSA KS1 = experiment: MIC, broth microdilution, MRSA KS1; assay type: cell-based, Staphylococcus aureus; conditions: for MIC-fold improvement vs. vancomycin: MRSA KS1, ratio of MIC of vancomycin and MIC of analogue; for MIC: Staphylococcus aureus MRSA KS1, read-out: MIC
# In short: as §1
# [4] = system: human T-lymphocyte (CEM) cells; experiment: Cytostatic activity, CEM cell proliferation; assay type: cell-based; conditions: mean ± SD of three experiments; highest concentration tested 250 µM; 3 days; read-out: Toxicity (IC50) CEM
# In short: as §2
# S. aureus VRSA = experiment: MIC, broth microdilution, vancomycin-resistant S. aureus (VRSA); assay type: cell-based, Staphylococcus aureus; conditions: for MIC: Staphylococcus aureus VRSA, read-out: MIC; for MIC-fold improvement vs. vancomycin: VRSA, ratio of MIC of vancomycin and MIC of analogue
# In short: as §1
# MRSA KS89 = experiment: MIC, broth microdilution, MRSA KS89; assay type: cell-based, Staphylococcus aureus; conditions: for MIC-fold improvement vs. vancomycin: MRSA KS8, ratio of MIC of vancomycin and MIC of analogue; for MIC: Staphylococcus aureus MRSA KS8, read-out: MIC
# In short: as §1
# E. faecalis VRE 29 = experiment: MIC, broth microdilution, vancomycin-resistant E. faecalis VRE 29 (VanA); assay type: cell-based, Enterococcus faecalis; conditions: for MIC: Enterococcus faecalis VRE 29 (vancomycin-resistant), read-out: MIC; for MIC-fold improvement vs. vancomycin: VRE 29, ratio of MIC of vancomycin and MIC of analogue
# In short: as §1
# [5] = system: L1210, CEM and HeLa cell lines; experiment: Cytostatic activity, average or summary over L1210, CEM and HeLa; assay type: cell-based; conditions: average of L1210, CEM and HeLa; read-out: Toxicity (IC50) Average
# In short: as §2
Structure (SMILES),MIC (S. aureus VISA/HIP5827),MIC-fold improvement vs. vancomycin (S. aureus VISA/HIP5827),MIC (E. faecalis VSE 1),MIC-fold improvement vs. vancomycin (E. faecalis VSE 1),MIC-fold improvement vs. vancomycin (MRSA KS2),MIC (MRSA KS2),MIC (E. faecalis VRE 53),MIC-fold improvement vs. vancomycin (E. faecalis VRE 53),MIC [1],MIC-fold improvement vs. vancomycin [1],MIC (E. faecalis VRE 6),MIC-fold improvement vs. vancomycin (E. faecalis VRE 6),MIC (E. faecalis VRE 37),IC50 [2],MIC-fold improvement vs. vancomycin (MRSA KS6),MIC (MRSA KS6),IC50 [3],MIC-fold improvement vs. vancomycin (MRSA KS1),MIC (MRSA KS1),IC50 [4],other results
CNC(CC(C)C)C(=O)NC1C(=O)NC(CC(N)=O)C(=O)NC2C(=O)NC3C(=O)NC(C(=O)NC(C(=O)NCC(=O)NC4c5ccccc5-c5ccccc54)c4cc(O)cc(O)c4-c4cc3ccc4O)C(O)c3ccc(c(Cl)c3)Oc3cc2cc(c3OC2OC(CO)C(O)C(O)C2OC2CC(C)(N)C(O)C(C)O2)Oc2ccc(cc2Cl)C1O (stereo not shown) [Vanc-90],0.39 µM,16,≤0.05 µM,≥32,8,0.10 µM,12.5 µM,32,0.10 µM,8,1.56 µM,128,3.13 µM,175 ± 106 µM,4,0.20 µM,127 ± 27 µM,8,0.10 µM,68 ± 8 µM,MIC-fold improvement vs. vancomycin (E. faecalis VRE 37): 128; MIC (S. aureus VRSA): 0.78 µM; MIC-fold improvement vs. vancomycin (S. aureus VRSA): 128; MIC-fold improvement vs. vancomycin (MRSA KS89): 4; MIC (MRSA KS89): 0.20 µM; MIC (E. faecalis VRE 29): 3.13 µM; MIC-fold improvement vs. vancomycin (E. faecalis VRE 29): 128; IC50 [5]: 123 µM
CN[C@H](CC(C)C)C(=O)N[C@H]1C(=O)N[C@@H](CC(N)=O)C(=O)N[C@H]2C(=O)N[C@H]3C(=O)N[C@H](C(=O)N[C@H](C(=O)NCCNC(=O)/C=C/c4ccc(C)cc4)c4cc(O)cc(O)c4-c4cc3ccc4O)[C@H](O)c3ccc(c(Cl)c3)Oc3cc2cc(c3O[C@@H]2O[C@H](CO)[C@@H](O)[C@H](O)[C@H]2O[C@H]2C[C@](C)(N)[C@H](O)[C@H](C)O2)Oc2ccc(cc2Cl)[C@H]1O [Vanc-53],0.78 µM,8,0.78 µM,2,2,0.39 µM,12.5 µM,32,0.39 µM,2,12.5 µM,16,25 µM,176 ± 18 µM,2,0.39 µM,176 ± 103 µM,2,0.39 µM,152 ± 43 µM,MIC-fold improvement vs. vancomycin (E. faecalis VRE 37): 16; MIC (S. aureus VRSA): 0.39 µM; MIC-fold improvement vs. vancomycin (S. aureus VRSA): 256; MIC-fold improvement vs. vancomycin (MRSA KS89): 2; MIC (MRSA KS89): 0.39 µM; MIC (E. faecalis VRE 29): 25 µM; MIC-fold improvement vs. vancomycin (E. faecalis VRE 29): 16; IC50 [5]: 168 µM
CN[C@H](CC(C)C)C(=O)N[C@H]1C(=O)N[C@@H](CC(N)=O)C(=O)N[C@H]2C(=O)N[C@H]3C(=O)N[C@H](C(=O)N[C@H](C(=O)NCCCNC(=O)c4ccc5ccccc5c4)c4cc(O)cc(O)c4-c4cc3ccc4O)[C@H](O)c3ccc(c(Cl)c3)Oc3cc2cc(c3O[C@@H]2O[C@H](CO)[C@@H](O)[C@H](O)[C@H]2O[C@H]2C[C@](C)(N)[C@H](O)[C@H](C)O2)Oc2ccc(cc2Cl)[C@H]1O [Vanc-28],0.39 µM,16,0.20 µM,8,4,0.20 µM,25 µM,16,0.39 µM,2,3.13 µM,64,12.5 µM,> 250 µM,4,0.20 µM,68 ± 16 µM,2,0.39 µM,229 ± 12 µM,MIC (S. aureus VRSA): 3.13 µM; MIC-fold improvement vs. vancomycin (S. aureus VRSA): 32; MIC-fold improvement vs. vancomycin (MRSA KS89): 2; MIC (MRSA KS89): 0.39 µM; MIC (E. faecalis VRE 29): 6.25 µM; MIC-fold improvement vs. vancomycin (E. faecalis VRE 29): 64; IC50 [5]: 182 µM
CNC(CC(C)C)C(=O)NC1C(=O)NC(CC(N)=O)C(=O)NC2C(=O)NC3C(=O)NC(C(=O)NC(C(=O)NCC(=O)Nc4cccc(OC)c4)c4cc(O)cc(O)c4-c4cc3ccc4O)C(O)c3ccc(c(Cl)c3)Oc3cc2cc(c3OC2OC(CO)C(O)C(O)C2OC2CC(C)(N)C(O)C(C)O2)Oc2ccc(cc2Cl)C1O (stereo not shown) [Vanc-12],0.39 µM,16,0.78 µM,2,2,0.39 µM,12.5 µM,32,0.39 µM,2,6.25 µM,32,25 µM,> 250 µM,1,0.78 µM,194 ± 78 µM,2,0.39 µM,> 250 µM,MIC (S. aureus VRSA): 12.5 µM; MIC-fold improvement vs. vancomycin (S. aureus VRSA): 8; MIC-fold improvement vs. vancomycin (MRSA KS89): 2; MIC (MRSA KS89): 0.39 µM; MIC (E. faecalis VRE 29): 12.5 µM; IC50 [5]: 231 µM
